Test results reported in patent publication US20080200454A1, “CARBON-LINKED TETRAHYDRO-PYRAZOLO-PYRIDINE MODULATORS OF CATHEPSIN S” (priority 2007, published 2008).
pIC50: −log10 of the molar value. Like-named read-outs stand apart in the source and are kept apart here.

Biological target: Recombinant human cathepsin S (CatS) (Homo sapiens, UniProt P25774)
Assay: Recombinant human cathepsin S (CatS) inhibition assay, fluorogenic substrate Z-Valine-Valine-Arginine-AMC;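 also: Baculovirus-expressed CatS in pH 5.0 sodium acetate buffer with DTT and NaCl, fluorescence read each minute over 20 min, inhibition derived from rate slope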

Sequence of Recombinant human cathepsin S (CatS) (P25774 115-331): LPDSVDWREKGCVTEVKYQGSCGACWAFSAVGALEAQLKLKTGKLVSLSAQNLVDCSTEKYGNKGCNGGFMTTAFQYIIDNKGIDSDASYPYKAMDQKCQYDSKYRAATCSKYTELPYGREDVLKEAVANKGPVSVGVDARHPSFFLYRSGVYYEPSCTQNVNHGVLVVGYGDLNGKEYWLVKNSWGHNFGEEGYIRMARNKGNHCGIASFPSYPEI

pIC50	Structure (SMILES)	pIC50 (CatS IC50)
	CS(=O)(=O)N1CCc2c(c(-c3ccc(Cl)c(C#Cc4ccc(CNCc5ccc(Cl)cc5)cc4)c3)nn2CCCN2CCCOCC2)C1 [Example 399, 1-{4-[(2-Chloro-5-{5-(methylsulfonyl)-1-[3-(1,4-oxazepan-4-yl)propyl]-4,5,6,7-tetrahydro-1H-pyrazolo[4,3-c]pyridin-3-yl}phenyl)ethynyl]phenyl}-N-[(4-chlorophenyl)methyl]methanamine]	6.96
6.72	CC(=O)N1CCc2c(c(-c3ccc(Cl)c(C#Cc4ccc(CNCc5ccc(Cl)cc5)cc4)c3)nn2CCCN2CCOC[C@@H]2C)C1 [Example 400, 1-(4-{[5-(5-Acetyl-1-{3-[(3S)-3-methylmorpholin-4-yl]propyl}-4,5,6,7-tetrahydro-1H-pyrazolo[4,3-c]pyridin-3-yl)-2-chlorophenyl]ethynyl}phenyl)-N-[(4-chlorophenyl)methyl]methanamine]	
	C[C@H]1COCCN1CCCn1nc(-c2ccc(Cl)c(C#Cc3ccc(CNCc4ccc(Cl)cc4)cc3)c2)c2c1CCN(C(N)=O)C2 [Example 401, 3-(4-Chloro-3-{[4-({[(4-chlorophenyl)methyl]amino}methyl)phenyl]ethynyl}phenyl)-1-{3-[(3S)-3-methylmorpholin-4-yl]propyl}-1,4,6,7-tetrahydro-5H-pyrazolo[4,3-c]pyridine-5-carboxamide]	6.96
	C[C@H]1COCCN1CCCn1nc(-c2ccc(Cl)c(C#Cc3ccc(CNCc4ccc(Cl)cc4)cc3)c2)c2c1CCN(C(=O)CO)C2 [Example 402, 2-[3-(4-Chloro-3-{[4-({[(4-chlorophenyl)methyl]amino}methyl)phenyl]ethynyl}phenyl)-1-{3-[(3S)-3-methylmorpholin-4-yl]propyl}-1,4,6,7-tetrahydro-5H-pyrazolo[4,3-c]pyridin-5-yl]-2-oxoethanol]	6.82
5.07	CS(=O)(=O)N1CCc2c(c(-c3ccc(Cl)c(C#Cc4nnc5n4CCNC5)c3)nn2CCCN2CCOCC2)C1 [Example 403, 3-({2-Chloro-5-[5-(methylsulfonyl)-1-(3-morpholin-4-ylpropyl)-4,5,6,7-tetrahydro-1H-pyrazolo[4,3-c]pyridin-3-yl]phenyl}ethynyl)-5,6,7,8-tetrahydro[1,2,4]triazolo[4,3-a]pyrazine]	
	CS(=O)(=O)N1CCc2c(c(-c3ccc(Cl)c(C#Cc4ccc(CNCc5cccnc5)cc4)c3)nn2CCCN2CCOCC2)C1 [Example 404, 1-[4-({2-Chloro-5-[5-(methylsulfonyl)-1-(3-morpholin-4-ylpropyl)-4,5,6,7-tetrahydro-1H-pyrazolo[4,3-c]pyridin-3-yl]phenyl}ethynyl)phenyl]-N-(pyridin-3-ylmethyl)methanamine]	6.43
	CS(=O)(=O)N1CCc2c(c(-c3ccc(Cl)c(C#Cc4ccc(CNCc5ccncc5)cc4)c3)nn2CCCN2CCOCC2)C1 [Example 405, 1-[4-({2-Chloro-5-[5-(methylsulfonyl)-1-(3-morpholin-4-ylpropyl)-4,5,6,7-tetrahydro-1H-pyrazolo[4,3-c]pyridin-3-yl]phenyl}ethynyl)phenyl]-N-(pyridin-4-ylmethyl)methanamine]	6.54
6.34	CC1C(=O)NCCN1CCCn1nc(-c2ccc(Cl)c(C#Cc3ccc(CNCc4ccc(Cl)cc4)cc3)c2)c2c1CCN(S(C)(=O)=O)C2 (stereo not shown) [Example 406, 4-{3-[3-(4-Chloro-3-{[4-({[(4-chlorophenyl)methyl]amino}methyl)phenyl]ethynyl}phenyl)-5-(methylsulfonyl)-4,5,6,7-tetrahydro-1H-pyrazolo[4,3-c]pyridin-1-yl]propyl}-3-methylpiperazin-2-one]	
	CS(=O)(=O)N1CCc2c(c(-c3ccc(Cl)c(C#Cc4ccc(CNCc5ccc(Cl)cc5)cc4)c3)nn2CCCN2CCN(c3ccccc3O)CC2)C1 [Example 407, 2-(4-{3-[3-(4-Chloro-3-{[4-({[(4-chlorophenyl)methyl]amino}methyl)phenyl]ethynyl}phenyl)-5-(methylsulfonyl)-4,5,6,7-tetrahydro-1H-pyrazolo[4,3-c]pyridin-1-yl]propyl}piperazin-1-yl)phenol]	7.70
	CS(=O)(=O)N1CCc2c(c(-c3ccc(Cl)c(C#Cc4ccc(CNCc5ccccn5)cc4)c3)nn2CCCN2CCOCC2)C1 [Example 408, 1-[4-({2-Chloro-5-[5-(methylsulfonyl)-1-(3-morpholin-4-ylpropyl)-4,5,6,7-tetrahydro-1H-pyrazolo[4,3-c]pyridin-3-yl]phenyl}ethynyl)phenyl]-N-(pyridin-2-ylmethyl)methanamine]	6.55
7.70	CS(=O)(=O)N1CCc2c(c(-c3ccc(Cl)c(C#Cc4ccc(CNCc5ccc(Cl)cc5)cc4)c3)nn2CCCN2CCN(c3cccc(O)c3)CC2)C1 [Example 409, 3-(4-{3-[3-(4-Chloro-3-{[4-({[(4-chlorophenyl)methyl]amino}methyl)phenyl]ethynyl}phenyl)-5-(methylsulfonyl)-4,5,6,7-tetrahydro-1H-pyrazolo[4,3-c]pyridin-1-yl]propyl}piperazin-1-yl)phenol]	
7.40	CS(=O)(=O)N1CCc2c(c(-c3ccc(Cl)c(C#Cc4ccc(CNCc5ccc(Cl)cc5)cc4)c3)nn2CCCN2CCN(c3ccc(O)cc3)CC2)C1 [Example 410, 4-(4-{3-[3-(4-Chloro-3-{[4-({[(4-chlorophenyl)methyl]amino}methyl)phenyl]ethynyl}phenyl)-5-(methylsulfonyl)-4,5,6,7-tetrahydro-1H-pyrazolo[4,3-c]pyridin-1-yl]propyl}piperazin-1-yl)phenol]	
6.80	CC(=O)N1CCc2c(c(-c3ccc(Cl)c(C#Cc4ccc(CNCc5ccc(Cl)cc5)cc4)c3)nn2CCCN2CCSCC2)C1 [Example 412, 1-[4-({5-[5-Acetyl-1-(3-thiomorpholin-4-ylpropyl)-4,5,6,7-tetrahydro-1H-pyrazolo[4,3-c]pyridin-3-yl]-2-chlorophenyl}ethynyl)phenyl]-N-[(4-chlorophenyl)methyl]methanamine]	
	O=C(CO)N1CCc2c(c(-c3ccc(Cl)c(C#Cc4ccc(CNCc5ccc(Cl)cc5)cc4)c3)nn2CCCN2CCSCC2)C1 [Example 413, 2-[3-(4-Chloro-3-{[4-({[(4-chlorophenyl)methyl]amino}methyl)phenyl]ethynyl}phenyl)-1-(3-thiomorpholin-4-ylpropyl)-1,4,6,7-tetrahydro-5H-pyrazolo[4,3-c]pyridin-5-yl]-2-oxoethanol]	7.00
7.52	NC(=O)C(=O)N1CCc2c(c(-c3ccc(Cl)c(C#Cc4ccc(CNCc5ccc(Cl)cc5)cc4)c3)nn2CCCN2CCSCC2)C1 [Example 414, 2-[3-(4-Chloro-3-{[4-({[(4-chlorophenyl)methyl]amino}methyl)phenyl]ethynyl}phenyl)-1-(3-thiomorpholin-4-ylpropyl)-1,4,6,7-tetrahydro-5H-pyrazolo[4,3-c]pyridin-5-yl]-2-oxoacetamide]	
7.05	CS(=O)(=O)N1CCc2c(c(-c3ccc(Cl)c(C#Cc4ccc5c(c4)CNCC5)c3)nn2CCCN2CCN(C3CC3)CC2)C1 [Example 415, 7-[(2-Chloro-5-{1-[3-(4-cyclopropylpiperazin-1-yl)propyl]-5-(methylsulfonyl)-4,5,6,7-tetrahydro-1H-pyrazolo[4,3-c]pyridin-3-yl}phenyl)ethynyl]-1,2,3,4-tetrahydroisoquinoline]	
	CS(=O)(=O)N1CCc2c(c(-c3ccc(Cl)c(C#Cc4ccc(CNCc5ccc(Cl)cc5)cc4)c3)nn2CCCN2CCN(c3ccncc3)CC2)C1 [Example 416, 1-{4-[(2-Chloro-5-{5-(methylsulfonyl)-1-[3-(4-pyridin-4-ylpiperazin-1-yl)propyl]-4,5,6,7-tetrahydro-1H-pyrazolo[4,3-c]pyridin-3-yl}phenyl)ethynyl]phenyl}-N-[(4-chlorophenyl)methyl]methanamine]	7.15
	CS(=O)(=O)N1CCc2c(c(-c3ccc(Cl)c(C#Cc4ccc(CNCc5ccc(Cl)cc5)cc4)c3)nn2CCCN2CCN(c3cccnc3)CC2)C1 [Example 417, 1-{4-[(2-Chloro-5-{5-(methylsulfonyl)-1-[3-(4-pyridin-3-ylpiperazin-1-yl)propyl]-4,5,6,7-tetrahydro-1H-pyrazolo[4,3-c]pyridin-3-yl}phenyl)ethynyl]phenyl}-N-[(4-chlorophenyl)methyl]methanamine]	7.70
5.99	COC(=O)C1COCCN1CCCn1nc(-c2ccc(Cl)c(C#Cc3ccc(CNCc4ccc(Cl)cc4)cc3)c2)c2c1CCN(S(C)(=O)=O)C2 (stereo not shown) [Example 418, Methyl 4-{3-[3-(4-chloro-3-{[4-({[(4-chlorophenyl)methyl]amino}methyl)phenyl]ethynyl}phenyl)-5-(methylsulfonyl)-4,5,6,7-tetrahydro-1H-pyrazolo[4,3-c]pyridin-1-yl]propyl}morpholine-3-carboxylate]	
6.74	CS(=O)(=O)N1CCc2c(c(-c3ccc(Cl)c(C#Cc4ccc(CNCc5ccc(Cl)cc5)cc4)c3)nn2CCCN2CCOCC2CO)C1 (stereo not shown) [Example 419, (4-{3-[3-(4-Chloro-3-{[4-({[(4-chlorophenyl)methyl]amino}methyl)phenyl]ethynyl}phenyl)-5-(methylsulfonyl)-4,5,6,7-tetrahydro-1H-pyrazolo[4,3-c]pyridin-1-yl]propyl}morpholin-3-yl)methanol]	
7.00	CS(=O)(=O)N1CCc2c(c(-c3ccc(Cl)c(C#Cc4ccc(CNCc5ccc(Cl)cc5)cc4)c3)nn2CCCN2C[C@@H]3C[C@H]2CO3)C1 [Example 420, 1-[4-({2-Chloro-5-[5-(methylsulfonyl)-1-{3-[(1S,4S)-2-oxa-5-azabicyclo[2.2.1]hept-5-yl]propyl}-4,5,6,7-tetrahydro-1H-pyrazolo[4,3-c]pyridin-3-yl]phenyl}ethynyl)phenyl]-N-[(4-chlorophenyl)methyl]methanamine]	
	CS(=O)(=O)N1CCc2c(c(-c3ccc(Cl)c(C#Cc4ccc(CNCc5cccs5)cc4)c3)nn2CCCN2CCOCC2)C1 [Example 421, 1-[4-({2-Chloro-5-[5-(methylsulfonyl)-1-(3-morpholin-4-ylpropyl)-4,5,6,7-tetrahydro-1H-pyrazolo[4,3-c]pyridin-3-yl]phenyl}ethynyl)phenyl]-N-(2-thienylmethyl)methanamine]	6.72
